In data set [1] the test system is human RNAP I, II, and III. In words: Radiochemical assay with human RNAP I, II, and III (HeLaScribe Nuclear Extract). Type of data set: biochemical. The procedure: Radiochemical assays with human RNAP I, II, and III were performed essentially as described [Sawadogo and Roeder, Cell 43:165-75, 1985]. Reaction mixtures contained (20 μl): 0-100 μM test compound, 8 U HeLaScribe Nuclear Extract (Promega, Inc.), 1 μg human placental DNA (Sigma-Aldrich), 400 μM ATP, 400 μM [α^32P]UTP (0.11 Bq/fmol), 400 μM CTP, 400 μM GTP, 50 mM Tris-HCl, pH 8.0, 7 mM HEPES-NaOH, 70 mM (NH4)2SO4, 50 mM KCl, 12 mM MgCl2, 5 mM DTT, 0.1 mM EDTA, 0.08 mM phenylmethylsulfonyl fluoride, and 16% glycerol. Reaction components other than DNA and NTPs were pre-incubated 10 min at 30° C., DNA was added and reaction mixtures were incubated 15 min at 30° C., NTPs were added and reaction mixtures were incubated 60 min at 30° C. Reaction mixtures were spotted on DE81 filter discs (Whatman, Inc.; pre-wetted with water) and incubated 1 min at room temperature. Filters were washed with 3×3 ml Na2HPO4, 2×3 ml water, and 3 ml ethanol, using a filter manifold (Hoefer, Inc.). Filters were placed in scintillation vials containing 10 ml Scintiverse BD Cocktail (Thermo Fisher, Inc.), and radioactivity was quantified by scintillation counting (LS6500; Beckman-Coulter, Inc.).
(§1) Half-maximal inhibitory concentrations (IC50s) were calculated by non-linear regression in SigmaPlot (SPSS, Inc.).

Data set [2] has as its target Escherichia coli RNAP σ70 holoenzyme (Escherichia coli, UniProt P0A8T7+P0A8V2). Put plainly: Fluorescence-detected RNAP assay, Escherichia coli RNAP. It is filed as biochemical. Particulars: fluorescent-detected RNAP assays. How it is done:
Fluorescence-detected RNAP assays with Escherichia coli RNAP were performed by a modification of the procedure of Kuhlman et al., Anal. Biochem. 324:183-190, 2004]. Reaction mixtures contained (20 μl): 0-100 nM test compound, 75 nM Escherichia coli RNAP σ^70 holoenzyme, 20 nM 384 bp DNA fragment containing the bacteriophage T4 N25 promoter, 100 μM ATP, 100 μM GTP, 100 μM UTP, 100 μM CTP, 50 mM Tris-HCl, pH 8.0, 100 mM KCl, 10 mM MgCl2, 1 mM DTT, 10 μg/ml bovine serum albumin, and 5.5% glycerol. Reaction components other than DNA and NTPs were pre-incubated for 10 min at 37° C. Reactions were carried out by addition of DNA and incubation for 5 min at 37° C., followed by addition of NTPs and incubation for 60 min at 37° C. DNA was removed by addition of 1 μl 5 mM CaCl2 and 2 U DNasel (Ambion, Inc.), followed by incubation for 90 min at 37° C. RNA was quantified by addition of 100 μl RiboGreen RNA Quantitation Reagent (Invitrogen, Inc.; 1:500 dilution in Tris-HCl, pH 8.0, 1 mM EDTA), followed by incubation for 10 min at 25° C., followed by measurement of fluorescence intensity [excitation wavelength=485 nm and emission wavelength=535 nm; QuantaMaster QM1 spectrofluorometer (PTI, Inc.)].
as §1

For data set [3], the system named is Enterobacter cloacae ATCC13047. In words: Antibacterial activity, broth microdilution. It is filed as cell-based. The source says: (§2) Antibacterial activity was quantified using broth microdilution [Clinical and Laboratory Standards Institute (CLSI/NCCLS), Methods for Dilution Antimicrobial Susceptibility Tests for Bacteria That Grow Aerobically; Approved Standard, Eighth Edition. CLIS Document M07-A8 (CLIS, Wayne Pa.), 2009]. Assays with Enterobacter cloacae ATCC13047, Pseudomonas aeruginosa ATCC10145, and Escherichia coli D21f2to1C, employed a starting cell density of 2-5×10^5 cfu/ml, Mueller Hinton II cation adjusted broth (BD Biosciences, Inc.), and an air atmosphere. Assays with Haemophilus influenzae ATCC49247 and Neisseria gonorrhoeae ATCC19424 employed a starting cell density of 2-5×10^5 cfu/ml, Haemophilus Test Medium broth (Barry et al., 1993) and a 5% CO2/95% air atmosphere. MIC50 was defined as the minimal concentration resulting in ≧50% inhibition of bacterial growth.
A general note: Dilution methods test growth across graded concentrations, often in twofold steps.

In data set [4] the test system is Escherichia coli D21f2tolC. In words: Antibacterial activity, broth microdilution. Type of data set: cell-based. The conditions noted are these: Escherichia coli, D21F2TOLC, read-out: MIC50 Escherichia coli D21f2tolC.
Excerpt: as §2

The test system of data set [5] is Haemophilus influenzae ATCC49247. Put plainly: Antibacterial activity, broth microdilution. Type of data set: cell-based. Particulars: Gram-negative bacterial pathogen.
Excerpt: as §2

Data set [6] concerns Neisseria gonorrhoeae ATCC19424. Put plainly: Antibacterial activity, broth microdilution. Type of data set: cell-based. The conditions noted are these: Gram-negative bacterial pathogen.
Excerpt: as §2

The subject of data set [7] is Pseudomonas aeruginosa ATCC10145. In words: Antibacterial activity, broth microdilution. It is filed as cell-based. Particulars: Gram-negative bacterial pathogen.
Excerpt: as §2

Data set [8] concerns Vero E6 cells (ATCC CRL1586). Put plainly: Cytotoxicity to mammalian cells in culture (CellTiter96 assay). It is filed as cell-based. The source says:
MICs for mammalian cells (Vero E6) in culture were quantified using CellTiter96 assay (Promega. Inc.; procedures as specified by the manufacturer).

For data set [9], the target named is RNAP-promoter open complex (Escherichia coli, UniProt P0A8T7+P0A8V2). Put plainly: Formation of the RNAP-promoter open complex. It is filed as biochemical.
Data set [10] has as its system RNAP. In words: Mechanism of transcription inhibition (nucleotide addition, trigger loop, NTP competition). Type of data set: biochemical.
Data set [11] has as its system rifamycin-, CBR703-, streptolydigin-, myxopyronin- and lipiarmycin-resistant mutants. The conditions noted are these: disclosed herein.
In data set [12] the test system is Gram-positive and Gram-negative bacterial RNAP. Particulars: reported previously (Miao et al. 1997); cited from earlier work.
Data set [13] concerns Gram-positive bacterial pathogens. Particulars: reported previously (Trischman et al. 1994; Moore et al. 1999); cited from earlier work.
The test system of data set [14] is bacterial cells in culture. The conditions noted are these: Ebright et al., WO/2012/129173; cited from earlier work.
Data set [15] relates to rifamycin-, CBR703-, streptolydigin-, myxopyronin- and lipiarmycin-resistant mutants. Particulars: Ebright et al., WO/2012/129173; cited from earlier work.

Converted amounts (≈) assume the structure as drawn. Numbered stars: 1 amine (or outer) side, 2 acyl side, 3 side chain; on linkers, the order of the positions; unused ones are H or OH. Bridge positions count the residues as written; N and C are the ends. Square brackets hold non-standard residues; d marks the D form. Peptide text beside a SMILES is read from it. * marks the point of attachment. X1 = C[C@@H](Oc1ccc([C@H](N[*:1])C(=O)[*:2])cc1)C1(/C=C/C(=O)[*:3])CO1; Pentanoyl(2R-Me,3R-OH,4-Me) = CC(C)[C@@H](O)[C@@H](C)C(=O)*; d(aIle) = CC[C@H](C)[C@@H](N)C(=O)O; d(aThr) = C[C@@H](O)[C@@H](N)C(=O)O; NMeF = CN[C@@H](Cc1ccccc1)C(=O)O

The term MIC50 denotes the lowest concentration that inhibits either 50% of growth or 50% of the strains tested, depending on the study.

Sequence of Escherichia coli RNAP σ70 holoenzyme (P0A8T7 whole entry, the tested form may be a part): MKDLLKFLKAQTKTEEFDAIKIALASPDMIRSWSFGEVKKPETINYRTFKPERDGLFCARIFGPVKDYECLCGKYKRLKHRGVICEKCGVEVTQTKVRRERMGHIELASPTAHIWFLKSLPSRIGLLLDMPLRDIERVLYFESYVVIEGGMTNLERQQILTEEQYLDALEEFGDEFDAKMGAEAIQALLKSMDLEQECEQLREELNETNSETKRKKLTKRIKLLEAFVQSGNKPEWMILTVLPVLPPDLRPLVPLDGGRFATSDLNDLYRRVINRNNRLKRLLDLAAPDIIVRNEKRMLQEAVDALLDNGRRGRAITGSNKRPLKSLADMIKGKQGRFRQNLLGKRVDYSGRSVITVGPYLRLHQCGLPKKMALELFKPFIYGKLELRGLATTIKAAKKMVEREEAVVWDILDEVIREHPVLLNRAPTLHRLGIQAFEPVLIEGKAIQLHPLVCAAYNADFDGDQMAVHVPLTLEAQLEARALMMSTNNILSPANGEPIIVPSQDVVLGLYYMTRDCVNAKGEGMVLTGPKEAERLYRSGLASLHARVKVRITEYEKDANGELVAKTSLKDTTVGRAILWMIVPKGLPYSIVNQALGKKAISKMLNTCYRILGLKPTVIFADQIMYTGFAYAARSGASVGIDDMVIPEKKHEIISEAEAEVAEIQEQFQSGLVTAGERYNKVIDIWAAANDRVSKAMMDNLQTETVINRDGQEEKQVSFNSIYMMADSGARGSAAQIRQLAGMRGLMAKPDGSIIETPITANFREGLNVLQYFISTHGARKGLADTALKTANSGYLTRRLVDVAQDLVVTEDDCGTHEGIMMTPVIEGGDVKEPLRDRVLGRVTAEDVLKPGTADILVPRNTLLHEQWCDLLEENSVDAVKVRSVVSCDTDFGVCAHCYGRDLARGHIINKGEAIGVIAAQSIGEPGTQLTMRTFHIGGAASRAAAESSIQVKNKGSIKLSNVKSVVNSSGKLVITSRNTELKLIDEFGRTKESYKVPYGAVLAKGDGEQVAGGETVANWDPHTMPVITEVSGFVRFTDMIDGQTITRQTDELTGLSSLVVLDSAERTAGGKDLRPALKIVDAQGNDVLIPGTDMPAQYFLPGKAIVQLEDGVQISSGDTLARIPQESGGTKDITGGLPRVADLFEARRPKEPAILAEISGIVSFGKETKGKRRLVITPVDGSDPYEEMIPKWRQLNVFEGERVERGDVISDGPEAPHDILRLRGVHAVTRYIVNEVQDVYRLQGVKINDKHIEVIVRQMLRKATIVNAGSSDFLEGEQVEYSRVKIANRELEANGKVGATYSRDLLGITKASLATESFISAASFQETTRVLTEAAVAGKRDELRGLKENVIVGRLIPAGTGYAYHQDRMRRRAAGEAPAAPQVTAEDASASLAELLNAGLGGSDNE
Sequence of Escherichia coli RNAP σ70 holoenzyme (P0A8V2 whole entry, the tested form may be a part): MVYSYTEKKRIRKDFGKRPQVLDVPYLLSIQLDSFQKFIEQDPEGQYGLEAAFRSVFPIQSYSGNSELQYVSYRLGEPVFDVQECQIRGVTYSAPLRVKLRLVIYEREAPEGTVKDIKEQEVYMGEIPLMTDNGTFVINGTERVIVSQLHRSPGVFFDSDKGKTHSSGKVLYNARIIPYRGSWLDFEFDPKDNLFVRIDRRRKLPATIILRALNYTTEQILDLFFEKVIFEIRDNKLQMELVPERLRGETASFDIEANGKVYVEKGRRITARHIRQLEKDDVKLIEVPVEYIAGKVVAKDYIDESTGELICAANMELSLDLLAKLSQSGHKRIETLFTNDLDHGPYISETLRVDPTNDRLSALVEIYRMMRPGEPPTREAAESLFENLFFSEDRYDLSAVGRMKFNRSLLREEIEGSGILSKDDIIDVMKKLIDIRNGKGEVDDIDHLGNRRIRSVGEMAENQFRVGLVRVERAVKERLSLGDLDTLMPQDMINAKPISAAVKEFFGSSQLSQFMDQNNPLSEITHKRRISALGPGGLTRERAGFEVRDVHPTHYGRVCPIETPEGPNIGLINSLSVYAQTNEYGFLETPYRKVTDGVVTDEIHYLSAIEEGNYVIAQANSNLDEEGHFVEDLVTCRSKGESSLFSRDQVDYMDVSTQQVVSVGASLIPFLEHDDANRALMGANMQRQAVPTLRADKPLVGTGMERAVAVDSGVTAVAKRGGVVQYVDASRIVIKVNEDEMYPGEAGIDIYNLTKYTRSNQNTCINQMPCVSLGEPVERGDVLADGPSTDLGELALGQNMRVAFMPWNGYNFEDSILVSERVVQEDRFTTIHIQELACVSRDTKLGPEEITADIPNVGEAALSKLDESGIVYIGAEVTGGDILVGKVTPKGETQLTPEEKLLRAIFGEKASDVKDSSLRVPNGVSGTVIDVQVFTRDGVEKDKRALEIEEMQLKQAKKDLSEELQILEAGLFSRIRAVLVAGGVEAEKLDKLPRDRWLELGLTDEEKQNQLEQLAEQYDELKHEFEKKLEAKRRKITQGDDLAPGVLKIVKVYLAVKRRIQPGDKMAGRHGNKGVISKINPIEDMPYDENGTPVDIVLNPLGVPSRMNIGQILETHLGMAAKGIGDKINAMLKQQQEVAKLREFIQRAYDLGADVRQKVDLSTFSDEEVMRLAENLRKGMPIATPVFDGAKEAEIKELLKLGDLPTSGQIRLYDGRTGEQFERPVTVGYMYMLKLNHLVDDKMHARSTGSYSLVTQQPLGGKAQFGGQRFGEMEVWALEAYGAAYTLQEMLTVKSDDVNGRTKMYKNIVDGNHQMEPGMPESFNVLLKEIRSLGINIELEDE
Sequence of Escherichia coli RNAP σ70 holoenzyme (P0A7Z4 whole entry, further chain, the tested form may be a part): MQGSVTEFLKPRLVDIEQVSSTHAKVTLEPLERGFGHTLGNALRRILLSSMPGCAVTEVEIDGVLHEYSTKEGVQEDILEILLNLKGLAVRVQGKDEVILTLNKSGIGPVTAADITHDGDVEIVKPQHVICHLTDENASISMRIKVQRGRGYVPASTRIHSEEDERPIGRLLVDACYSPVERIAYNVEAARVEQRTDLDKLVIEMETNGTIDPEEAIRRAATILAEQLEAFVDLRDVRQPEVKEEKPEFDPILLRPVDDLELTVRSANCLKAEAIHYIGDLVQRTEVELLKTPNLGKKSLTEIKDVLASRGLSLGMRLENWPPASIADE
Sequence of Escherichia coli RNAP σ70 holoenzyme (P0A800 whole entry, further chain, the tested form may be a part): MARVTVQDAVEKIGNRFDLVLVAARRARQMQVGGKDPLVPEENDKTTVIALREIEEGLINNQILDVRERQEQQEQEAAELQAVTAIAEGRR
Sequence of Escherichia coli RNAP σ70 holoenzyme (P00579 whole entry, further chain, the tested form may be a part): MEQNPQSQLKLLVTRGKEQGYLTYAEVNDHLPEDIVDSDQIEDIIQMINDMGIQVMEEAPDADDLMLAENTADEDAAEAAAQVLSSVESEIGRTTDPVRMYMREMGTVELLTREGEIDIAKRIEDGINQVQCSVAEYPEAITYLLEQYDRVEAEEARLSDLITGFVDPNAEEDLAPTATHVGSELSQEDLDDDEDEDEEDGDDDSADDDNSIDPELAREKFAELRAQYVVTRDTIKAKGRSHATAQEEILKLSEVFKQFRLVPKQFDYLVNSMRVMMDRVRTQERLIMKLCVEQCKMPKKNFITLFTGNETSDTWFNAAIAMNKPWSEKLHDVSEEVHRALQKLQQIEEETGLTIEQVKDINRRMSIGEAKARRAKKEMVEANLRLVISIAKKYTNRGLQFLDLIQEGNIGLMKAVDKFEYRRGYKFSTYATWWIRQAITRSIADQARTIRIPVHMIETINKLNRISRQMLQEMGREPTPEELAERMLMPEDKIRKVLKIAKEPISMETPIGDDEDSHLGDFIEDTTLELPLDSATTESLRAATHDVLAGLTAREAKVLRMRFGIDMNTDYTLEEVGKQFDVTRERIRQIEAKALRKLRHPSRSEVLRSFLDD

`CC[C@H](C)[C@H]1NC(=O)[C@@H](NC(=O)[C@H](C)[C@H](O)C(C)C)[C@@H](C)OC(=O)[C@@H]2COC(=O)CNC(=O)/C=C/C3(CO3)[C@@H](C)Oc3ccc(cc3)[C@H](NC1=O)C(=O)N(C)[C@@H](Cc1ccccc1)C(=O)N[C@H]([C@@H](C)O)C(=O)N2` (stereo partly drawn) [SalA (1), salinamide A] ({Pentanoyl(2R-Me,3R-OH,4-Me)}-T[d(aIle)][X1][NMeF][d(aThr)]S; ester 1-C; linker 3-6 via G): the “inhibition of human RNAP I, II, and III” value in data set [1] was “do not detectably inhibit”. In [1] (read-out: IC50 human RNAP I/II/III), the IC50 is more than 100 µM. This compound also came in with an IC50 in data set [2] of 1 µM. Further, the MIC50 in data set [3] (Enterobacter cloacae, ATCC13047, minimal concentration resulting in ≧50% inhibition of bacterial growth, read-out: MIC50 Enterobacter cloacae ATCC 13047) is 1.56 mg/L (≈ 1.53 µM). Besides, the “antibacterial activity against Enterobacter cloacae” value in data set [3] (Gram-negative bacterial pathogen) was “exhibit antibacterial activity”. Besides, the MIC50 in [4] was determined as 0.024 mg/L (≈ 0.0235 µM). Further, in [5], the “antibacterial activity against Haemophilus influenzae” value was “exhibit antibacterial activity”. The “antibacterial activity against Neisseria gonorrhoeae” value in data set [6] is given as “exhibit antibacterial activity”. The “antibacterial activity against Pseudomonas aeruginosa” value in [7] was “exhibit antibacterial activity”. Further, the “inhibition of growth of mammalian cells in culture” value in data set [8] is “do not detectably inhibit”. The “MIC50 Vero E6 ATCC CRL1586” value in data set [8] (Table 3) was more than 100 mg/L. In addition, the “inhibition of formation of the RNAP-promoter open complex in transcription initiation” value in data set [9] is listed as “does not inhibit”. In addition, in data set [10], the “inhibition of nucleotide addition in transcription initiation and transcription elongation” value is “inhibits”; the “inhibition of wild-type RNAP versus RNAP-derivative having a deletion of the trigger loop” value is “equal extents”; the “mode of transcription inhibition with respect to NTP substrate” value is recorded as “noncompetitive”. Also, the “cross-resistance of streptolydigin-resistant, myxopyronin-resistant, and lipiarmycin-resistant mutants with Sal” value in [11] is listed as “do not exhibit cross-resistance”. In addition, the “inhibition of Gram-positive and Gram-negative bacterial RNAP in vitro” value in data set [12] is listed as “inhibits”. Further, in data set [13], the “antibacterial activity against Gram-positive bacterial pathogens” value was “exhibit antibacterial activity”. In data set [14], the “inhibition of RNA synthesis in bacterial cells in culture” value is listed as “inhibits”. For the same compound, in data set [15], the “cross-resistance of CBR703-resistant mutants to Sal” value is reported as “not cross-resistant” and the “cross-resistance of rifamycin-resistant mutants to Sal” value is reported as “not cross-resistant”.

The record behind these values is patent US9809626B2, “Antibacterial agents: salinamide derivatives” (priority 2012, dated 2017).
